The values below come from article PMC8317065, “UPLC-MS/MS Method for Analysis of Endocannabinoid and Related Lipid Metabolism in Mouse Mucosal Tissue” (Frontiers in Physiology, 2021).

One test concerns MGL and ABHD6. Nature of the test: MAG degradative enzyme activity assay with JZL 184 and WWL 70 together, lung protein isolates. The test is classed as biochemical. Conditions: mouse lung. The procedure: (§1) Homogenized samples were centrifuged at 800 × g for 15 m at 4°C. The supernatant was collected in a 2.0 mL centrifuge tube and sonicated twice for 10 s. Samples underwent two sequential freeze thaw cycles using liquid N2. Samples were again centrifuged at 800 × g, 15 min, 4°C and the supernatant was collected. Total protein was then quantified via BCA assay and normalized between all samples. Protein isolations for each assay and each tissue were performed separately.
Substrate solutions were prepared by drying stock 19:2 MAG (50 nmol/reaction) under N2 steam and adding fatty acid free BSA (0.25%) and stock 50 mM Tris–HCl (pH = 8.0). The MGL substrate solution was then sonicated for 60 min while protein samples were prepared. […] MGL substrate solution was added to normalized protein (400 μL; 500 μL final volume) samples and incubated in a water bath at 37°C for 10 min (jejunum protein) or 30 min (lung protein). […] The products of the reaction were extracted via lipid extraction methods (see section “Lipid Extraction for Enzyme Assays”) and quantified via UPLC-MS/MS (see section “Quantitation of MAG Degradative Enzyme Activity Assay Products”).
Lipids were extracted using liquid-liquid extraction with chloroform (2.0 mL) followed by 0.8 mL 0.2-micron ultra-purified water. […] Products were detected and quantified via UPLC-MS/MS techniques (see section “UPLC-MS/MS Detection of Analytes”). […]

For test [1], the target named is T1, FAAH (Mus musculus, UniProt O08914).
T1 construct: from tissue; host or cells: mouse (C57BL/6J) lung, 21,100 x g pellet
T1 sequence (O08914 1-579): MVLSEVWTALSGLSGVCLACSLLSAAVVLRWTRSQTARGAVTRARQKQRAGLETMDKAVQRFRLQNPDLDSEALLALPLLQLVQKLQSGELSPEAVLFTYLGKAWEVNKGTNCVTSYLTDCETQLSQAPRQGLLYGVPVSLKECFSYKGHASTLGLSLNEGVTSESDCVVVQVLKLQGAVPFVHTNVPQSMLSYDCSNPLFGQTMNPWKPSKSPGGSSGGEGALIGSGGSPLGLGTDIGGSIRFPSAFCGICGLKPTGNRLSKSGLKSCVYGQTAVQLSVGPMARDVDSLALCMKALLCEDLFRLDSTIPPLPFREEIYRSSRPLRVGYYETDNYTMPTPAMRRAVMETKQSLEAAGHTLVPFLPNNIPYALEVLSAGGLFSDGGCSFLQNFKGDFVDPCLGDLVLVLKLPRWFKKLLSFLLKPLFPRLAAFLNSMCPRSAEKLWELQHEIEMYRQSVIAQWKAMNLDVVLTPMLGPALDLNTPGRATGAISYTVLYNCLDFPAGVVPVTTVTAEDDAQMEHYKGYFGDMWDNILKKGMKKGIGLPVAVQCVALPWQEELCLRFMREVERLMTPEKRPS
Nature of the test: FAAH (FAE degradative enzyme) activity assay, UPLC-MS/MS, jejunum epithelium protein isolates. The test is classed as biochemical. Conditions: jejunum epithelium protein 50 μg. As for the experimental part: (§2) Homogenized samples were centrifuged at 21,100 × g for 30 min at 4°C. The supernatant was discarded, and the pellets were resuspended in 750 μL of chilled 1x PBS (pH = 7.0). To ensure homogenous solution, lung samples were further homogenized using a sonic dismembranator using 8–10 root mean square (RMS) Watts of output power. Total protein was then quantified via BCA assay and normalized between all samples. Alternative protein isolation methods were required for FAAH isolation due to its subcellular localization to membranes of cytoplasmic organelles ([Gulyas et al., 2004]).
(§3) Substrate solutions were prepared by drying stock [^2H4]-PEA (5 nmol/reaction) under N2 steam and adding fatty acid free BSA (0.25%) and stock 50 mM Tris–HCl (pH = 8.0). The substrate solution was then bath sonicated for 60 min while protein samples were prepared. […] The products of the reaction were extracted via lipid extraction methods (see section “Lipid Extraction for Enzyme Assays”) and quantified via UPLC-MS/MS (see section “Quantitation of FAE Degradative Enzyme Activity”).
(§4) Lipids were extracted using liquid-liquid extraction with chloroform (2.0 mL) followed by 0.8 mL 0.2-micron ultra-purified water. […] Products were detected and quantified via UPLC-MS/MS techniques (see section “UPLC-MS/MS Detection of Analytes”).

Test [2] deals with T1, FAAH. Nature of the test: FAAH activity assay, UPLC-MS/MS, lung protein isolates. The test is classed as biochemical. Conditions: lung protein 10 μg. The procedure: as §2, §3, §4
The test system of test [3] is FAAH. Also noted: method as in Piomelli et al., 2006. Conditions: rat brain membranes; ref Piomelli et al., 2006; read-out: IC50 reported for rat brain membranes; cited from earlier work.
Test [4] has as its system ABHD6. Also on record: method as in Li et al., 2007. Conditions: fibroblast cell line; ref Li et al., 2007; read-out: IC50 reported for a fibroblast cell line; cited from earlier work.
Test [5] deals with T2, ABHD6 (Mus musculus, UniProt Q8R2Y0).
T2 construct: from tissue; host or cells: mouse (C57BL/6J) lung, 800 x g supernatant
T2 sequence (Q8R2Y0 1-336): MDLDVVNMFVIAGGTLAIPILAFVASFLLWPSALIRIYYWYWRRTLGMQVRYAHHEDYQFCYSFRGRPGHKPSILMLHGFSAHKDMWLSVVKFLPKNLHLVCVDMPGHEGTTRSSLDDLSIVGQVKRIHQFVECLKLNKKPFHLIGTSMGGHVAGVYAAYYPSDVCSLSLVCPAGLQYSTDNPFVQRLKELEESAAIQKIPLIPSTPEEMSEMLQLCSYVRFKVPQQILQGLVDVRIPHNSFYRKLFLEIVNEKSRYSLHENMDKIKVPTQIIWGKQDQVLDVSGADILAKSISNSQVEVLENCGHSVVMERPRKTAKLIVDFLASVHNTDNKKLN
Nature of the test: MAG degradative enzyme activity assay with WWL 70, lung protein isolates. The format is biochemical. Conditions: for MAG metabolism, product recovery (normalized response): lung protein 25 μg, WWL 70 alone. As for the experimental part: as §1
Substrate solutions were prepared by drying stock 19:2 MAG (50 nmol/reaction) under N2 steam and adding fatty acid free BSA (0.25%) and stock 50 mM Tris–HCl (pH = 8.0). The MGL substrate solution was then sonicated for 60 min while protein samples were prepared. […] MGL substrate solution was added to normalized protein (400 μL; 500 μL final volume) samples and incubated in a water bath at 37°C for 10 min (jejunum protein) or 30 min (lung protein). The reaction was stopped using 1.0 mL of chilled methanol containing the internal standard 17:1 FFA (5 nmol/reaction) and placed on ice. The products of the reaction were extracted via lipid extraction methods (see section “Lipid Extraction for Enzyme Assays”) and quantified via UPLC-MS/MS (see section “Quantitation of MAG Degradative Enzyme Activity Assay Products”).
Lipids were extracted using liquid-liquid extraction with chloroform (2.0 mL) followed by 0.8 mL 0.2-micron ultra-purified water. Samples were centrifuged (1500 × g, 5 min, 4°C) and the lower organic phase was collected. The samples were further purified, as previously described ([Batugedara et al., 2018]), via open-bed silica gel column chromatography which was washed with a 9:1 chloroform:methanol mixture to elute MAGs, FAEs, and FFAs for collection. Eluates were dried under N2 steam (99.998% pure) and resuspended in 0.2 mL of methanol:chloroform (1:1). Products were detected and quantified via UPLC-MS/MS techniques (see section “UPLC-MS/MS Detection of Analytes”).
Data was acquired using equipment described above (see section “UPLC-MS/MS Detection of Analytes”) and eluted by a gradient of water and methanol (containing 0.25% acetic acid, 5 mM ammonium acetate) at a flow rate of 0.4 mL/min and gradient: 90% methanol 0.0–0.1 min, 90–100% methanol 0.1–2.0 min, 100% methanol 2.0–2.1 min, 100–90% methanol 2.1–2.2 min, and 90% methanol 2.2–2.5 min. […] Lipids were quantified using a dilution series detecting deprotonated molecular ions in selected ion reading (SIR) mode (variable amounts of product 19:2 FFA versus fixed amount of internal standard 17:1 FFA). Extracted ion chromatograms for SIR masses were used to quantify analytes: 19:2 FFA (m/z = 293.2) product of MGL enzyme assay and 17:1 FFA (m/z = 267.2) as internal standard. Signal to noise ratio was >10 for all quantitated results.

Where [6] appears, read: highest inhibitor concentration of range (1,000 nM).
[7] abbreviates: lowest inhibitor concentration of range (3 nM).

In the case of `O=C(Oc1ccc([N+](=O)[O-])cc1)N1CCC(C(O)(c2ccc3c(c2)OCO3)c2ccc3c(c2)OCO3)CC1` [JZL 184], the “MAG metabolism (normalized response)” value was determined as 22.32 ± 2.73% in the test on MGL and ABHD6 (10 μM WWL 70 plus JZL 184, highest concentration of range (10,000 nM)); 94.25 ± 6.64% with MGL and ABHD6 (10 μM WWL 70 plus JZL 184, lowest concentration of range (3 nM)).

Turning to `NC(=O)c1cccc(-c2cccc(OC(=O)NC3CCCCC3)c2)c1` [URB597], the “FAAH activity (normalized response)” value came to 7.37 ± 0.001% at FAAH [1] (setting [6]) and 94.95 ± 7.89% on FAAH [1] (setting [7]). Moreover, the “FAE metabolism (normalized response)” value is 4.15 ± 0.46% on FAAH [2] (setting [6]) and 90.11 ± 8.58% at FAAH [2] (setting [7]). Also, the IC50 with FAAH [3] was […].

Regarding `CN(Cc1cccc(-c2ccncc2)c1)C(=O)Oc1ccc(-c2ccc(C(N)=O)cc2)cc1` [WWL 70], the half-maximal inhibitory concentration (IC50) in the test with ABHD6 [4] is […]; at ABHD6 [5] (mouse lung protein isolates 25 μg, WWL 70 3-10,000 nM alone, inhibition incomplete, read-out: IC50, inhibition of MAG metabolism (ABHD6 activity)), 0.78 µM. For the same compound, the “MAG metabolism, product recovery (normalized response)” value was 33.07 ± 1.72% on ABHD6 [5] (highest concentration of range (10,000 nM)) and 87.89 ± 13.69% at ABHD6 [5] (lowest concentration of range (3 nM)). The “blockade of MAG degradation, maximum” value at ABHD6 [5] (protein isolates from lungs of healthy male mice, concentration-dependent) is recorded as “up to 66%”.

The IC50 is the concentration needed to halve the response being measured.
